We go through two substances from US20080070265A1, “PEPTIDE-BASED IMMUNIZATION THERAPY FOR TREATMENT OF ATHEROSCLEROSIS” (CARDIO VAX, priority 2003, published 2008).

The assay concerns apoE−/− mice. Put plainly: Immunization of apoE−/− mice with peptide in Freund's adjuvant; size of atherosclerotic lesions in the proximal aorta. The assay is classed as in vivo. To be noted: for effect of immunization on atherosclerosis: experimental animals (apoE−/− mice). As to the method:
It was hypothesized that the induction of protective immunity could depend on presentation of peptides derived from apoB100 and modified by adduct formation during oxidative modification of the LDL particle. Further, it was hypothesized that such peptides must have a sequence that (i) contains side chains susceptible to adduct formation, and (ii) permits them to bind to MHC class II molecules. The apoB100 sequence was analyzed to identify such motifs. […] A peptide containing this sequence was synthesized and used for immunization of apoE−/− mice. The effect on atherosclerosis was quantified by measuring the size of atherosclerotic lesions after 12 weeks.
8 week old female apoE−/− mice (B6, Apoe−/−, M&B, Ry, Denmark) were immunized with 100 μg of peptide SEQ. ID. NO. 1, and SEQ. ID. NO. 2, respectively, emulsified with Freund's complete adjuvant to a total volume of 50 μl. Mice were boosted after 2 and 4 weeks with 50 μg of peptide in Freund's incomplete adjuvant. A third group of mice consisting of age-matched male mice was injected according to the same scheme with phosphate-buffered saline (PBS) in adjuvant. 4 weeks after the last boost, mice were anesthetized with carbon dioxide and killed by exsanguination after cardiac puncture. After vascular perfusion with sterile RNase-free PBS, the heart and proximal aorta were removed, embedded in OCT compound, frozen and cryosectioned.
The size of atherosclerotic lesions in the proximal aorta was quantified by using Leica Qwin software (for details of the method, see Nicoletti et al., J. Clin. Invest. (1998)) Results were expressed as μm^2 average lesion area per cross-section, as well as relative lesion area, i.e., lesion area (μm^2) divided by total aortic cross-section area (μm^2). The Mann-Whitney U test used for comparisons between means.

For the substance “NH2-YSKVHNGSEILFSYFQDLVIT-COOH (H-YSKVHNGSEILFSYFQDLVIT-OH) [SEQ. ID. NO. 2]”, the “effect of immunization on atherosclerosis” value is “aggravates atherosclerosis”. For the setting “female apoE−/− mice, same immunization scheme, proximal aorta, p<0.05”, the “lesions larger than PBS controls” value was determined as 36%.
Regarding “NH2-PTVMDFRKFSRNYQLYKSVSLPS-COOH (H-PTVMDFRKFSRNYQLYKSVSLPS-OH) [SEQ. ID. NO. 1, amino acids 625-647 of the human apoB100 protein]”, the “effect of immunization on atherosclerosis” value was “inhibition of atherosclerosis”. Also, for the setting “apoE−/− mice, FIG. 1”, the “lesion size versus control mice injected with PBS/adjuvant alone” value is on record as “significantly smaller lesions” and the “lesion size versus mice immunized with peptide SEQ. ID. NO. 2” value was “significantly smaller”. Further, the “reduction in lesion size compared to PBS controls” value (female apoE−/− mice, 100 μg peptide in Freund's complete adjuvant, boosts of 50 μg after 2 and 4 weeks, proximal aorta, p<0.05) was 42%. In addition, the “reduction in lesion size compared with peptide SEQ. ID. NO. 2 immunized mice” value (female apoE−/− mice, same immunization scheme, proximal aorta, p<0.001) was determined as 62%.
